Where a name gives a salt, the structure may show the parent alone.

One may read the IC50 as the concentration that inhibits the measured activity by half. A word on the pKi: it is the Ki on a negative log10 scale, so that one unit is a factor of ten. The term Ki denotes the equilibrium dissociation constant of an inhibitor or competing ligand from its target.

The conditions of data set [1]: cited from earlier work.
Data set [2] in a line: Inhibition of dextromethorphan metabolism in vivo (dextromethorphan plasma levels after sarpogrelate). Also on record: species or system rat. As to conditions: for Dextromethorphan AUC: dextromethorphan 50 mg/kg oral gavage, AUC 0-6 h, rat plasma. Here is the method: In a separate set of studies, ability of sarpogrelate to inhibit dextromethorphan metabolism in vivo was studied in rats. Adult male Sprague Dawley rats (RjHan:SD) purchased from Janvier Labs (France) were housed in a climate-controlled room under a 12 h light/12 h dark cycle with ad libitum access to food and water. Two-three days prior to blood sampling, rats were provided with a catheter in the jugular vein and, thereafter, rats treated once with Carprofen (5 mg/kg) directly after surgery and catheters were rinsed daily with Heparin (500 IE/ml) (20 μl/rat/day). On the day of the experiment, dextromethorphan (50 mg/kg) was administered by oral gavage, immediately followed by intravenous bolus injection of sarpogrelate (1, 3 or 10 mg/kg; racemate or one of the enantiomers) or vehicle via vascular access port at t=0 h. Blood samples were collected at four time points until 6 hours post dextromethorphan administration. Sample size was 80 μl Li-heparin whole blood/time point, i.e. 40 μl Li-heparin plasma/time point. Whole blood samples were stored on ice until centrifugation (10 min at 3000 g, 4° C.). Plasma was prepared within 45 min after collection, frozen at −20° C. and stored at this temperature until processed for LC-MS analysis.

The target of another data set is CYP2D6 (Homo sapiens (Human), UniProt P10635). In words: Dextromethorphan O-demethylase activity in human liver microsomes. Format: biochemical. Particulars: CYP 2D6 activity; pooled human liver microsomes 0.25 mg/ml; read-out: IC50. The procedure:
Dextromethorphan O-demethylase activity was determined in human liver microsomes. […] The incubation mixtures contained pooled human liver microsomes (final concentrations: 0.25 mg/ml), dextromethorphan, and a NADPH-generating system (1.3 mM NADP+, 3.3 mM glucose 6-phosphate, 3.3 mM MgCl2, and 0.4 U/ml glucose-6-phosphate dehydrogenase). […] All incubations were performed in triplicate, and mean values were used for analysis. […] Both sarpogrelate enantiomers inhibited CYP2D6-mediated dextromethorphan O-demethylation (Table 4).
A general note: Liver microsomes are a subcellular fraction often used to study metabolism.

The target in a further data set is 5-HT2A receptors (Homo sapiens (Human), UniProt P28223). In words: 5-HT2A receptor antagonist radioligand binding ([3H]ketanserin). As to conditions: for IC50: inhibition of [3H]ketanserin binding, HEK-293 cells expressing human recombinant 5HT2A receptor. Here is the method:
HEK-293 cells expressing human recombinant 5HT2A receptor were used in the antagonist radioligand binding studies. […] The inhibition constants (Ki) were calculated using the Cheng Prusoff equation. Both sarpogrelate enantiomers were potent inhibitors of [3H]ketanserin binding (Table 1). M1 enantiomers also potently bind to 5HT2A receptors with the Ki values that are approximately one order of magnitude higher than those of sarpogrelate enantiomers (Table 1). There are no meaningful differences between enantiomers in terms of 5-HT2A receptor binding for sarpogrelate or its main metabolite.
5HT2a ASSAY: Evaluation of the affinity of compounds for the human 5-HT2A receptor in transfected HEK-293 cells determined in a radioligand binding assay. Cell membrane homogenates (30-50 μg protein) were incubated 15 min at 37° C. with 0.5 nM [3H]ketanserin in the absence or presence of the test compound in a buffer containing 50 mM Tris-HCl (pH 7.4). Nonspecific binding was determined in the presence of 1 μM ketanserin. Following incubation, the samples were filtered rapidly under vacuum through glass fiber filters presoaked with 0.3% PEI and rinsed several times with ice-cold 50 mM Tris-HCl using a 96-sample cell harvester. The filters were dried then counted for radioactivity in a scintillation counter using a scintillation cocktail (WO2005013952A1, EP1500391A1[ab1], incorporated in its entirety by reference).

Data set [3] relates to PCP-induced hyperactivity. The data set can be described thus: Phencyclidine-induced hyperactivity in rats (sarpogrelate and dextromethorphan). Format: in vivo, rat. Particulars: in the presence of dextromethorphan; racemate 3 mg/kg, (−) sarpogrelate 1 or 3 mg/kg i.p.; PCP 5 mg/kg s.c.; 60-120 min.
Data set [4] concerns locomotor activity, stereotypy, ataxia. As to conditions: DO 15-120 mg/kg, DEX 15-120 mg/kg, PCP 1.25-20 mg/kg; rats; cited from earlier work.
For data set [5], the system named is behavioral disturbances in Alzheimer's disease. As to conditions: human, in vivo; cited from earlier work.
Data set [6] relates to NPI scores and sleep in patients with AD. As to conditions: human, in vivo; cited from earlier work.
[7] abbreviates: sarpogrelate dose 1 mg/kg i.v. bolus.
Setting [8] is: sarpogrelate dose 3 mg/kg i.v. bolus.
Where [9] appears, read: sarpogrelate dose 10 mg/kg i.v. bolus.
Where [10] appears, read: Ki calculated using the Cheng Prusoff equation.

Chain of CYP2D6 (P10635 whole entry): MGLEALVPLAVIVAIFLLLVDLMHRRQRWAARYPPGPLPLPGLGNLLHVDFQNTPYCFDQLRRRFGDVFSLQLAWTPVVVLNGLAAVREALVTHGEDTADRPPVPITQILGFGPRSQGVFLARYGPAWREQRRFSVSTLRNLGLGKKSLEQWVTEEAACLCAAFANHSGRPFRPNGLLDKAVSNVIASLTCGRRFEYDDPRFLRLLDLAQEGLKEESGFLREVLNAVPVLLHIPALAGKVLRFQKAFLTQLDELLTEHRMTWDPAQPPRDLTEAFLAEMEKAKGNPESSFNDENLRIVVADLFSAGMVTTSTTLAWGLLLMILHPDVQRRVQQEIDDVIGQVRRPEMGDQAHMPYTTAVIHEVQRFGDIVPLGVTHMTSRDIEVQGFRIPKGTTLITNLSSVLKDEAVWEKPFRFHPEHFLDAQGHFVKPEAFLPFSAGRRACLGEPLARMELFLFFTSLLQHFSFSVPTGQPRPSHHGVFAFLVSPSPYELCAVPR
Chain of 5-HT2A receptors (P28223 whole entry): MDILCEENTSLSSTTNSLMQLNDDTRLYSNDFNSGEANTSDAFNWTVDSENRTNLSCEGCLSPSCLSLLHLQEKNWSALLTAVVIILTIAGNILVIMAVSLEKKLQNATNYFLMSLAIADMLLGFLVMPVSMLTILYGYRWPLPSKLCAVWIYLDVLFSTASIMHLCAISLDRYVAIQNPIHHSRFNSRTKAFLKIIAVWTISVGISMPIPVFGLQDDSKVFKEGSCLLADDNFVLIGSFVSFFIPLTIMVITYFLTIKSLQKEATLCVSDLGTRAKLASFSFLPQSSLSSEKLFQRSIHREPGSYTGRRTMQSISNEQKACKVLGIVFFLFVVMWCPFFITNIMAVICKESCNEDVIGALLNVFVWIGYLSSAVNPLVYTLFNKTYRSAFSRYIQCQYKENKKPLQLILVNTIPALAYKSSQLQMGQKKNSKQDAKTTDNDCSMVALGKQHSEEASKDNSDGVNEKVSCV

Regarding `COc1cccc(CCc2ccccc2OCC(CN(C)C)OC(=O)CCC(=O)O)c1` (centres unmarked) [Compound 50 hydrochloride, Butanedioic acid, mono(2-(dimethylamino)-1-((2-(2-(3-methoxyphenyl)ethyl)phenoxy)methyl)ethyl) ester, hydrochloride], in data set [1] (5, 20, 80 and 320 mg/kg/day orally, 52 weeks, beagle dogs), the mortality entry is given as “No animal died or was sacrificed in extremis”. Besides, in data set [1] (dog, in vivo, po), the Food consumption result was “inhibited in females receiving 80 mg/kg/day and over”; the biochemical examination result was “an increase in potassium in males receiving 80 mg/kg/day and over, and females receiving 320 mg/kg/day”; the “electrocardiographic or ophthalmoscopic examination” value is given as “no treatment related change”; the “general conditions: emesis” value is “emesis was noted in males and females receiving 320 mg/kg/day and males receiving 80 mg/kg/day”. Besides, in data set [1] (dog, in vivo, po), the “general conditions: salivation” value is “salivation in females receiving 320 mg/kg/day”, the hematological examination entry is “an increase in a platelet count in males receiving 320 mg/kg/day”, the “histopathological examination of the kidney” value was “fatty degeneration was revealed in the cortico-medullary border zone of the kidney in males receiving 320 mg/kg/day” and the urinalysis result is listed as “an increase in protein was revealed in females receiving 320 mg/kg/day”. In addition, the water consumption entry in data set [1] (dog, in vivo, po) was “inhibition of water consumption”.

Turning to `COc1cccc(CCc2ccccc2OC[C@H](CN(C)C)OC(=O)CCC(=O)O)c1` [Compound 51], the “Fold increase (relative to vehicle) of dextromethorphan AUC” value is reported as 1.4 fold in data set [2] (sarpogrelate dose 1 mg/kg), 3.3 fold in data set [2] (sarpogrelate dose 3 mg/kg) and 6.9 fold in data set [2] (sarpogrelate dose 10 mg/kg). Moreover, the figures for the “Dextromethorphan AUC” value in data set [2] (setting [7]), in data set [2] (setting [8]) and in data set [2] (setting [9]) were 827.0 ng·h/mL, 2021.5 ng·h/mL and 4154.3 ng·h/mL, respectively. Besides, the IC50 was 580 nM on CYP2D6 and 7.5 nM at 5-HT2A receptors. On 5-HT2A receptors (setting [10]), the pKi was 8.4.

With `COc1cccc(CCc2ccccc2OCC(CN(C)C)OC(=O)CCC(=O)O)c1` (centres unmarked) [Compound 52], the “Fold increase (relative to vehicle) of dextromethorphan AUC” value in data set [2] (sarpogrelate dose 1 mg/kg) turned out to be 1.5 fold; in data set [2] (sarpogrelate dose 3 mg/kg) it was 2.7 fold; in data set [2] (sarpogrelate dose 10 mg/kg) it was 5.3 fold. Further, the results for the “Dextromethorphan AUC” value in data set [2] (setting [7]), in data set [2] (setting [8]) and in data set [2] (setting [9]) were 921.4 ng·h/mL, 1649.5 ng·h/mL and 3195.9 ng·h/mL, respectively. Further, the values for the half-maximal inhibitory concentration (IC50) on CYP2D6 and on 5-HT2A receptors were 1300 nM and 11 nM, respectively. Besides, in data set [3], the “motor hyperactivity in PCP-treated rats” value is listed as “inhibited motor hyperactivity in PCP-treated rats”. For the same compound, the pKi on 5-HT2A receptors (setting [10]) is recorded as 8.2.

Take `COc1cccc(CCc2ccccc2OC[C@@H](O)CN(C)C)c1` [Compound 147, (S)-1-(dimethylamino)-3-(2-(3-methoxyphenethyl)phenoxy)propan-2-ol]: the IC50 is 38 nM on CYP2D6 and 1.2 nM at 5-HT2A receptors. Moreover, at 5-HT2A receptors (setting [10]), the Ki is 0.794 nM.

`c1ccc(C2(N3CCCCC3)CCCCC2)cc1` [PCP, 1-(1-phenylcyclohexyl)piperidine]: in data set [4], the “behavioral effects given alone (locomotor hyperactivity, stereotypy, ataxia)” value is “dose-dependent locomotor hyperactivity, stereotypy and ataxia”.

For `CC12CC3CC(C)(C1)CC(N)(C3)C2` [memantine, 3,5-dimethyladamantan-1-amine], in data set [5], the agitation/aggression entry is “significant improvement in agitation/aggression”, the delusions result is given as “significant improvement in delusions”, the disinhibition result was “significant improvement in disinhibition” and the irritability/lability entry is recorded as “superior to control in irritability/lability”. Further, the “nighttime disturbance/diurnal rhythm disturbances” value in data set [5] is “significant improvement in nighttime disturbance/diurnal rhythm disturbances”. In data set [6], the fragmented sleep result is on record as “effective in reducing fragmented sleep”, the “scores of NPI item for irritability/lability” value is “significantly decreases the scores of NPI item for irritability/lability” and the “scores of NPI subscale for anxiety” value is recorded as “significantly decreases in the scores of NPI subscale for anxiety”.

These data come from patent US11478467B2 (priority 2017, dated 2022).
